From ChEMBL document CHEMBL6115026, “Synthesis and Biological Evaluation of Peripheral 5HT2B Antagonists for Liver Fibrosis” (J Med Chem, 2025)
Values belong to the molecule of their own block, whether it stands above or below them. The source made the active and inactive calls. The rule behind the calls is not given here.

Experiments:
[1] = biological target: T1, 5-hydroxytryptamine receptor 2B (Homo sapiens, UniProt P41595); assay: Binding affinity to 5-HT2B (unknown origin)
[2] = biological target: T1, 5-hydroxytryptamine receptor 2B; assay: Antagonist activity at 5HT2B (unknown origin) expressed in FRT cells co-expressing ANO1 and YFP assessed as inhibition of 5HT-induced increase in iodide influx at 1 uM preincubated with compound for 10 mins followed by 5-HT addition and measured after 8 sec by YFP fluorescence quenching analysis relative to control; assay type: cell-based; settings: time 608.0 sec
[3] = biological target: T1, 5-hydroxytryptamine receptor 2B; assay: Antagonist activity at 5HT2B (unknown origin) expressed in FRT cells co-expressing ANO1 and YFP assessed as inhibition of 5HT-induced increase in iodide influx preincubated with compound for 10 mins followed by 5-HT addition and measured after 8 sec by YFP fluorescence quenching analysis; assay type: cell-based
[4] = Drug concentration in male mouse plasma at 5 mg/kg, ip measured after 0.5 hrs; assay type: ADME, organism-based
[5] = Drug concentration in male mouse brain at 5 mg/kg, ip measured after 0.5 hrs; assay type: ADME, organism-based; settings: read-out: Ct
[6] = Ratio of drug concentration in male mouse brain to plasma at 5 mg/kg, ip measured after 0.5 hrs; assay type: ADME, organism-based; settings: brain and plasma, read-out: BPR
[7] = Drug concentration in male mouse plasma at 5 mg/kg, ip measured after 0.5 hrs by LC-MS/MS analysis; assay type: ADME, organism-based
[8] = Drug concentration in male mouse brain at 5 mg/kg, ip measured after 0.5 hrs by LC-MS/MS analysis; assay type: ADME, organism-based; settings: read-out: Ct
[9] = Metabolic stability in mouse liver microsomes assessed as parent compound remaining measured after 30 mins in presence of NADPH by LC-MS/MS analysis; assay type: ADME, Microsome; settings: read-out: Stability
[10] = Metabolic stability in rat liver microsomes assessed as parent compound remaining measured after 30 mins in presence of NADPH by LC-MS/MS analysis; assay type: ADME, Microsome; settings: read-out: Stability
[11] = Metabolic stability in human liver microsomes assessed as parent compound remaining measured after 30 mins in presence of NADPH by LC-MS/MS analysis; assay type: ADME, Microsome; settings: read-out: Stability
hERG (KCNH2) = hERG (KCNH2) (Homo sapiens, UniProt Q12809); assay: Inhibition of human ERG at 10 uM incubated for 2 hrs by fluorescence polarization assay relative to control; assay type: toxicity
CYP1A2 = biological target: T2, CYP1A2 (Homo sapiens, UniProt P05177); assay: Inhibition of CYP1A2 (unknown origin) at 1 uM preincubated for 10 mins followed by NADPH addition and measured after 20 mins by luminescence based microplate reader analysis relative to control; assay type: ADME; settings: time 30 min
T2 sequence (P05177 whole entry): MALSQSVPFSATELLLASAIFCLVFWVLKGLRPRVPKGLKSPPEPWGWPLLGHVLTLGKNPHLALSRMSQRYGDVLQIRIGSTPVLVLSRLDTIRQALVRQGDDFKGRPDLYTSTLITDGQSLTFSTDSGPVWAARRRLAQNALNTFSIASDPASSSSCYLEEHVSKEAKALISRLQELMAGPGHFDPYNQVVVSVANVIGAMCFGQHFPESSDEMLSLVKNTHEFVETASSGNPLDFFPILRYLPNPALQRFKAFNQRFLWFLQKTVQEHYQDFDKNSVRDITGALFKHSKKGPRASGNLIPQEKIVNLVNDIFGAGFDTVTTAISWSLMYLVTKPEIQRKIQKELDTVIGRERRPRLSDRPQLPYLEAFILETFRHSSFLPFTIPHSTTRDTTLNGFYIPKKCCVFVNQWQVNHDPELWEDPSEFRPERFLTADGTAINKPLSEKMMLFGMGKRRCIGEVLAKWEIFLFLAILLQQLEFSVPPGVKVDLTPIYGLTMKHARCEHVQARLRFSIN

CYP2C9 = CYP2C9 (Homo sapiens, UniProt P11712); assay: Inhibition of CYP2C9 (unknown origin) at 1 uM preincubated for 10 mins followed by NADPH addition and measured after 20 mins by luminescence based microplate reader analysis relative to control; assay type: ADME; settings: time 30 min
CYP2C19 = CYP2C19 (Homo sapiens, UniProt P33261); assay: Inhibition of CYP2C19 (unknown origin) at 1 uM preincubated for 10 mins followed by NADPH addition and measured after 20 mins by luminescence based microplate reader analysis relative to control; assay type: ADME; settings: time 30 min
CYP2D6 = CYP2D6 (Homo sapiens, UniProt P10635); assay: Inhibition of CYP2D6 (unknown origin) at 1 uM preincubated for 10 mins followed by NADPH addition and measured after 20 mins by luminescence based microplate reader analysis relative to control; assay type: ADME; settings: time 30 min
CYP3A4 = CYP3A4 (Homo sapiens, UniProt P08684); assay: Inhibition of CYP3A4 (unknown origin) at 1 uM preincubated for 10 mins followed by NADPH addition and measured after 20 mins by luminescence based microplate reader analysis relative to control; assay type: ADME; settings: time 30 min
[12] = Cytotoxicity against African green monkey Vero cells assessed as reduction in cell viability incubated for 24 hrs by EZ-CYTOX cell viability assay; assay type: toxicity, cell-based, Chlorocebus sabaeus
[13] = Cytotoxicity against HFL1 cells assessed as reduction in cell viability incubated for 24 hrs by EZ-CYTOX cell viability assay; assay type: toxicity, cell-based; settings: human
[14] = Cytotoxicity against mouse L929 cells assessed as reduction in cell viability incubated for 24 hrs by EZ-CYTOX cell viability assay; assay type: toxicity, cell-based
[15] = Cytotoxicity against mouse NIH3T3 cells assessed as reduction in cell viability incubated for 24 hrs by EZ-CYTOX cell viability assay; assay type: toxicity, cell-based
[16] = Cytotoxicity against CHO-K1 cells assessed as reduction in cell viability incubated for 24 hrs by EZ-CYTOX cell viability assay; assay type: toxicity, cell-based, Cricetulus griseus; settings: Chinese hamster
[17] = biological target: 5-hydroxytryptamine receptor 2A (Homo sapiens) (UniProt P28223); assay: Inhibition of 5-HT2A (unknown origin) at 1 uM relative to control
[18] = Half-life in male ICR mouse at 2 mg/kg, iv measured after 24 hrs by LC-MS/MS analysis; assay type: ADME, organism-based; settings: in vivo
[19] = AUC (0 to t) in male ICR mouse at 2 mg/kg, iv measured after 24 hrs by LC-MS/MS analysis; assay type: ADME, organism-based; settings: in vivo
[20] = Clearance in male ICR mouse at 2 mg/kg, iv measured after 24 hrs by LC-MS/MS analysis; assay type: ADME, organism-based; settings: in vivo
[21] = Volume of distribution at steady state in male ICR mouse at 2 mg/kg, iv measured after 24 hrs by LC-MS/MS analysis; assay type: ADME, organism-based; settings: in vivo, read-out: Vdss
[22] = Toxicity in CCl4-induced male C57BL/6J mouse model of liver fibrosis assessed as effect on liver gross morphology at 10 to 30 mg/kg, ip co-administered daily with CCl4 for 4 weeks; assay type: organism-based; settings: in vivo, 672 h, dose 10-30 mg/kg
Mus musculus [23] = assay: Antifibrotic activity in CCl4-induced male C57BL/6J mouse model of liver fibrosis assessed as reduction in fibrotic deposition in liver at 10 to 30 mg/kg, ip co-administered daily with CCl4 for 4 weeks by sirius red staining based analysis; assay type: functional, organism-based; settings: dose 10-30 mg/kg
Mus musculus [24] = assay: Antifibrotic activity in CCl4-induced male C57BL/6J mouse model of liver fibrosis assessed as reduction in fibrotic deposition in liver at 10 to 30 mg/kg, ip co-administered daily with CCl4 for 4 weeks by masson's trichrome staining based analysis; assay type: functional, organism-based; settings: dose 10-30 mg/kg
Mus musculus [25] = assay: Antifibrotic activity in CCl4-induced male C57BL/6J mouse model of liver fibrosis assessed as reduction in fibrotic deposition in liver at 10 to 30 mg/kg, ip co-administered daily with CCl4 for 4 weeks by H and E staining based analysis; assay type: functional, organism-based; settings: dose 10-30 mg/kg
Mus musculus [26] = assay: Antifibrotic activity in CCl4-induced male C57BL/6J mouse model of liver fibrosis assessed as reduction in fibrosis be measuring fibrotic stage at 10 to 30 mg/kg, ip co-administered daily with CCl4 for 4 weeks; assay type: functional, organism-based; settings: dose 10-30 mg/kg
Mus musculus [27] = assay: Antifibrotic activity in CCl4-induced male C57BL/6J mouse model of liver fibrosis assessed as reduction in sirius red positive area in liver at 10 to 30 mg/kg, ip co-administered daily with CCl4 for 4 weeks by sirius red staining based analysis; assay type: functional, organism-based; settings: dose 10-30 mg/kg
Mus musculus [28] = assay: Antifibrotic activity in CCl4-induced male C57BL/6J mouse model of liver fibrosis assessed as downregulation of alpha-SMA gene expression at 10 to 30 mg/kg, ip co-administered daily with CCl4 for 4 weeks by RT-PCR analysis; assay type: functional, organism-based; settings: dose 10-30 mg/kg
Mus musculus [29] = assay: Antifibrotic activity in CCl4-induced male C57BL/6J mouse model of liver fibrosis assessed as downregulation of Timp1 gene expression at 10 to 30 mg/kg, ip co-administered daily with CCl4 for 4 weeks by RT-PCR analysis; assay type: functional, organism-based; settings: dose 10-30 mg/kg
Mus musculus [30] = assay: Antifibrotic activity in CCl4-induced male C57BL/6J mouse model of liver fibrosis assessed as downregulation of Col1a1 gene expression at 10 to 30 mg/kg, ip co-administered daily with CCl4 for 4 weeks by RT-PCR analysis; assay type: functional, organism-based; settings: dose 10-30 mg/kg
Mus musculus [31] = assay: Antifibrotic activity in CCl4-induced male C57BL/6J mouse model of liver fibrosis assessed as downregulation of Col3a1 gene expression at 10 to 30 mg/kg, ip co-administered daily with CCl4 for 4 weeks by RT-PCR analysis; assay type: functional, organism-based; settings: dose 10-30 mg/kg
Mus musculus [32] = assay: Antifibrotic activity in CCl4-induced male C57BL/6J mouse model of liver fibrosis assessed as reduction in plasma ALT level at 10 to 30 mg/kg, ip co-administered daily with CCl4 for 4 weeks by enzymatic colorimetric analysis; assay type: functional, organism-based; settings: dose 10-30 mg/kg
Mus musculus [33] = assay: Antifibrotic activity in CCl4-induced male C57BL/6J mouse model of liver fibrosis assessed as reduction in plasma AST level at 10 to 30 mg/kg, ip co-administered daily with CCl4 for 4 weeks by enzymatic colorimetric analysis; assay type: functional, organism-based; settings: dose 10-30 mg/kg
Mus musculus [34] = assay: Antifibrotic activity in CCl4-induced male C57BL/6J mouse model of liver fibrosis assessed as reduction in plasma total bilirubin level at 10 to 30 mg/kg, ip co-administered daily with CCl4 for 4 weeks by enzymatic colorimetric analysis; assay type: functional, organism-based; settings: dose 10-30 mg/kg
Mus musculus [35] = assay: Antifibrotic activity in CCl4-induced male C57BL/6J mouse model of liver fibrosis assessed as reduction in hydroxyproline level in liver at 10 to 30 mg/kg, ip co-administered daily with CCl4 for 4 weeks; assay type: functional, organism-based; settings: dose 10-30 mg/kg

T1 sequence (P41595 whole entry): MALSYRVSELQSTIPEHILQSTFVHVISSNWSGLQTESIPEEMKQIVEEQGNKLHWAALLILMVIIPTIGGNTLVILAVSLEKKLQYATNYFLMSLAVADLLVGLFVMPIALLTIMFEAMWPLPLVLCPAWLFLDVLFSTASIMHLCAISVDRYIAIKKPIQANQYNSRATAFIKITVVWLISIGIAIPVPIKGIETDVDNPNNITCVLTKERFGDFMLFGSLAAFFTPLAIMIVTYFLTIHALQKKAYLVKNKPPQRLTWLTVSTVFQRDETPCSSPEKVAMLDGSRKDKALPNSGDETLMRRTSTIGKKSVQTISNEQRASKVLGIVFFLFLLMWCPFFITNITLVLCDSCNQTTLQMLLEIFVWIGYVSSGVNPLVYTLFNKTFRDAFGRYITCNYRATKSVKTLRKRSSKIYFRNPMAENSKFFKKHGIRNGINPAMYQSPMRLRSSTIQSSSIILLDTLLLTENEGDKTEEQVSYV
Chain of CYP3A4 (P08684 whole entry): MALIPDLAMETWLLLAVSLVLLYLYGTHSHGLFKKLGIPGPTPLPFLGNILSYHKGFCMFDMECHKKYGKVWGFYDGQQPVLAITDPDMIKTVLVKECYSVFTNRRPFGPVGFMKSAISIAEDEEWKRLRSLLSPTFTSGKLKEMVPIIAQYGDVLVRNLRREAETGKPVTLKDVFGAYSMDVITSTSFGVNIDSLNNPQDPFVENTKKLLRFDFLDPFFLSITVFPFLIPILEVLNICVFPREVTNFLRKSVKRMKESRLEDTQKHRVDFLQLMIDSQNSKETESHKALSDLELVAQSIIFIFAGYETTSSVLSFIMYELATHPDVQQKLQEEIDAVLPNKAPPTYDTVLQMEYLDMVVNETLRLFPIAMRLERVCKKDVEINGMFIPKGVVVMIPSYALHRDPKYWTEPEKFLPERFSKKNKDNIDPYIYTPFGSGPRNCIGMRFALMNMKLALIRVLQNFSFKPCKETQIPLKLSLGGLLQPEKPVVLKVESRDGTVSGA
Chain of CYP2C19 (P33261 whole entry): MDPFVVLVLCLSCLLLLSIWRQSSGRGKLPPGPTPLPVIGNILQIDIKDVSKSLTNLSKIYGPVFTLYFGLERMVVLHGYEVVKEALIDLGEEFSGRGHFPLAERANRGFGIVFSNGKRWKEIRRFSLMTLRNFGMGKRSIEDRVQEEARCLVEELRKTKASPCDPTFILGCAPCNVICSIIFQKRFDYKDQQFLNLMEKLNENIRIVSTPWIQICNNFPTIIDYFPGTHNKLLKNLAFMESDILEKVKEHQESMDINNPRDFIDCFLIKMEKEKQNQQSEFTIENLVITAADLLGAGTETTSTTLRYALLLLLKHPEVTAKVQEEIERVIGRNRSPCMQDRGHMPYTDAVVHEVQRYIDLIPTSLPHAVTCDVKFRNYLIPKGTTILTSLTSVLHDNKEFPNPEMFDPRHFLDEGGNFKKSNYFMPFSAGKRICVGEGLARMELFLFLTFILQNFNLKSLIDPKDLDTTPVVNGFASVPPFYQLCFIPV
Chain of hERG (KCNH2) (Q12809 whole entry): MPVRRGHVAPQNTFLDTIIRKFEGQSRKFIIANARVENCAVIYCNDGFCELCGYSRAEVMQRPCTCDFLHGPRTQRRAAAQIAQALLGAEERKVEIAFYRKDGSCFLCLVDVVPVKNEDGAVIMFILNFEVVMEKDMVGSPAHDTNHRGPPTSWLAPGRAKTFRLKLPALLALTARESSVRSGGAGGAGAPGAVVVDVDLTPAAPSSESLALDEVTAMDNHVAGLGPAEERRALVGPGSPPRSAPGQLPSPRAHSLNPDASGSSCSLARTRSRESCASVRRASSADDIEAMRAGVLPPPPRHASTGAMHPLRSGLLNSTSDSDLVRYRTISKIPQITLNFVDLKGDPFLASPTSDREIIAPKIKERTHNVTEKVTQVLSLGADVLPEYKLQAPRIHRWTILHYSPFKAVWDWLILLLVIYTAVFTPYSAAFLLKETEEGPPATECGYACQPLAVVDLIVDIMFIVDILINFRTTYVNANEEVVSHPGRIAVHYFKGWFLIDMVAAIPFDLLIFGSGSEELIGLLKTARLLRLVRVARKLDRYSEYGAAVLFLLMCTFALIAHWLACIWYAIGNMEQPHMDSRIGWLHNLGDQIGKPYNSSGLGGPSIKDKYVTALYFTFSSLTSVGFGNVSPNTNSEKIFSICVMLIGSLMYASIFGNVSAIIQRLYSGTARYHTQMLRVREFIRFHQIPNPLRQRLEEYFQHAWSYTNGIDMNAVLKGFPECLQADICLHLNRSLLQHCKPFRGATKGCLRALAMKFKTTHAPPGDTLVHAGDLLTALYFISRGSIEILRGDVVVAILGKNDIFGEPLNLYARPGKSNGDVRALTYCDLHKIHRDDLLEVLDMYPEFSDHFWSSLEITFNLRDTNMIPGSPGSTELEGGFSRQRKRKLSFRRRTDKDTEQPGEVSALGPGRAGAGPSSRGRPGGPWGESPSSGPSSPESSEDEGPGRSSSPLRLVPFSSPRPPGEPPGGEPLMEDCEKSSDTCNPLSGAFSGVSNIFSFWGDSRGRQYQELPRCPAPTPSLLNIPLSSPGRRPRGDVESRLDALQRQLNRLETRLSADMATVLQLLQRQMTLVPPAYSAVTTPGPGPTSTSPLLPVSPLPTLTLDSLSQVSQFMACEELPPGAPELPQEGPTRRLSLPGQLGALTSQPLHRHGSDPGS
Chain of CYP2D6 (P10635 whole entry): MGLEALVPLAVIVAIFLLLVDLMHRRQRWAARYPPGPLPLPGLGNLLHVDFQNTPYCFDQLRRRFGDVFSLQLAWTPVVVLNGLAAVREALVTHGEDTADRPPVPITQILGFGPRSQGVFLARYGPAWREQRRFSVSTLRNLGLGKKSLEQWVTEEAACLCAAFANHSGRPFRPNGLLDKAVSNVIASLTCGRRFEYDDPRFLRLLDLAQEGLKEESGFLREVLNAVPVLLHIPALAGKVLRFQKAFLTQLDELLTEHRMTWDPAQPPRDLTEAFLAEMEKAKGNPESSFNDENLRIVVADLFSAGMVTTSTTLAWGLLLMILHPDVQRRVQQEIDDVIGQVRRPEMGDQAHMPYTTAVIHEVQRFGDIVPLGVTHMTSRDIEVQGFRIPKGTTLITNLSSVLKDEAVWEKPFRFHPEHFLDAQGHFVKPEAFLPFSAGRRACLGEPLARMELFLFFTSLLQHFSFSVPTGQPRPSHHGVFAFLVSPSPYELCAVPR
Chain of 5-hydroxytryptamine receptor 2A (Homo sapiens) (P28223 whole entry): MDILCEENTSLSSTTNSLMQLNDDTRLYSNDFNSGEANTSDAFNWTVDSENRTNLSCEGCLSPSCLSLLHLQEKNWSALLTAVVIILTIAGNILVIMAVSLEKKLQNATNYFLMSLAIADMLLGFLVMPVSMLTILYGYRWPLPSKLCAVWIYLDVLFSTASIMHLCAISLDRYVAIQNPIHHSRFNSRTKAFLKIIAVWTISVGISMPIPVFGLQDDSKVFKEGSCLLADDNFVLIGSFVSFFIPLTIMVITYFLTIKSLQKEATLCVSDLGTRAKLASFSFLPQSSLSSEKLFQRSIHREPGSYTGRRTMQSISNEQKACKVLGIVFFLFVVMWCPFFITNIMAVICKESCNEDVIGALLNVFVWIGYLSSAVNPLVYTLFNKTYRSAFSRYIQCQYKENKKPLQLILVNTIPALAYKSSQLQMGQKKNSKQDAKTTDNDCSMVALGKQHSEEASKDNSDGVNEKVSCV
Chain of CYP2C9 (P11712 whole entry): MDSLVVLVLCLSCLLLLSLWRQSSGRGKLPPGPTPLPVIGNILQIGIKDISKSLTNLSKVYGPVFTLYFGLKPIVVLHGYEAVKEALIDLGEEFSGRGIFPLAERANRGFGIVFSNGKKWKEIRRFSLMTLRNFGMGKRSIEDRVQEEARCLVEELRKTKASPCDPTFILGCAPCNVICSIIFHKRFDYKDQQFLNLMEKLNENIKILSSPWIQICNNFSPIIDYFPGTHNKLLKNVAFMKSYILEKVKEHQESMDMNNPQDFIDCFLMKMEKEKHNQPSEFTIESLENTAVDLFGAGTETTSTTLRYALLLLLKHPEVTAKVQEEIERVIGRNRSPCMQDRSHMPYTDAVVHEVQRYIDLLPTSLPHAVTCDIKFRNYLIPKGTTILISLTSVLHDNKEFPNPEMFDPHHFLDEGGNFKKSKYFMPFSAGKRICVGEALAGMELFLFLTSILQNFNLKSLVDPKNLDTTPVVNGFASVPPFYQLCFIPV

SMILES: C[C@@H]1CN(C(=N)NCc2ccccc2)N=C1c1cccc(Cl)c1O
IC50 [1]: < 1 nM

SMILES: COc1ccc(S(=O)(=O)N[C@H]2CCN(C(=O)OC(C)(C)C)C2)cc1C(=O)Nc1ccccc1Cl
inhibition ([2]; filed as antagonist): 96.1%

SMILES: COc1ccc(S(=O)(=O)N[C@H]2CCN(C(=O)C[C@H](N)C(=O)O)C2)cc1C(=O)Nc1ccccc1Cl
inhibition ([2]; filed as antagonist): 103%
IC50 [3]: 10 nM

SMILES: COc1ccc(S(=O)(=O)N[C@H]2CCN(C(=O)CC[C@H](N)C(=O)O)C2)cc1C(=O)Nc1ccccc1Cl.Cl
inhibition ([2]; filed as antagonist): 102%
IC50 [3]: 1.09 nM
concentration at 0.5 h [7]: 440 ng/mL
concentration at 0.5 h [8]: < 31.3 ng/g
remaining at 0.5 h [9]: 91.6%
remaining at 0.5 h [10]: 94.7%
remaining at 0.5 h [11]: 97.6%
inhibition at 2 h, 10 µM (hERG (KCNH2)): 18.6%
inhibition at 20 min, 1 µM (CYP1A2): < 1%
inhibition at 20 min, 1 µM (CYP2C9): < 1%
inhibition at 20 min, 1 µM (CYP2C19): 17.6%
inhibition at 20 min, 1 µM (CYP2D6): < 1%
inhibition at 20 min, 1 µM (CYP3A4): 33.8%
IC50 at 24 h [12]: > 100000 nM
IC50 at 24 h [13]: > 100000 nM
IC50 at 24 h [14]: > 100000 nM
IC50 at 24 h [15]: > 100000 nM
IC50 at 24 h [16]: > 100000 nM
inhibition [17]: -9.88%
half-life [18]: 1.02 h
AUC(0-t) at 24 h [19]: 810 ng·h/mL
clearance [20]: 34.5 mL/min/kg
Vd [21]: 1.93 L/kg
Activity [22]: Non-toxic
Activity (Mus musculus [23]): Active
Activity (Mus musculus [24]): Active
Activity (Mus musculus [25]): Active
Activity (Mus musculus [26]): Active
Activity (Mus musculus [27]): Active
Activity (Mus musculus [28]): Active
Activity (Mus musculus [29]): Active
Activity (Mus musculus [30]): Active
Activity (Mus musculus [31]): Active
Activity (Mus musculus [32]): Active
Activity (Mus musculus [33]): Active
Activity (Mus musculus [34]): Active
Activity (Mus musculus [35]): Active

More lines, now with the values ahead:

inhibition ([2]; filed as antagonist): 93.7%
SMILES: COc1ccc(S(=O)(=O)N[C@H]2CCNC2)cc1C(=O)Nc1ccccc1Cl

concentration at 0.5 h [4]: 99.2 ng/mL
concentration at 0.5 h [5]: 51.7 ng/g
Kp at 0.5 h [6]: 0.53
inhibition ([2]; filed as antagonist): 98.8%
IC50 [3]: 1.8 nM
SMILES: COc1ccc(S(=O)(=O)N[C@H]2CCOC2)cc1C(=O)Nc1ccccc1Cl

inhibition [2]: 32.8%
SMILES: COc1ccc(S(=O)(=O)N[C@H]2CCOC2)cc1C(=O)Nc1ccccc1N

inhibition [2]: 15%
SMILES: COc1ccc(S(=O)(=O)N[C@H]2CCOC2)cc1C(=O)Nc1ccccc1N1CCNCC1

inhibition ([2]; filed as antagonist): 99%
SMILES: COc1ccc(S(=O)(=O)N[C@@H]2CCN(C(=O)OC(C)(C)C)C2)cc1C(=O)Nc1ccccc1Cl
